Measured values from patent US20030083336A1, “Phenylpiperazinyl derivatives” (H. Lundbeck A/S, priority 1999, published 2003).

Legend:
[1] = target: T1, human cloned dopamine D4.2 receptors (Homo sapiens, UniProt P21917, DEL265-296); test: Inhibition of the binding of 3H-YM-09151-2 to human dopamine D4 receptors; settings: [3H]YM-09151-2 0.06 nM; for IC50: membranes of CHO-cells, read-out: D4-bind. IC50; for inhibition at 0.05 µM: test compound at 50 nM, read-out: D4-bind. % inhibition of binding at 50 nM
T1 construct: expressed in transfected cells; host or cells: CHO cells
T1 sequence (P21917 with tags, fused parts or gaps DEL265-296): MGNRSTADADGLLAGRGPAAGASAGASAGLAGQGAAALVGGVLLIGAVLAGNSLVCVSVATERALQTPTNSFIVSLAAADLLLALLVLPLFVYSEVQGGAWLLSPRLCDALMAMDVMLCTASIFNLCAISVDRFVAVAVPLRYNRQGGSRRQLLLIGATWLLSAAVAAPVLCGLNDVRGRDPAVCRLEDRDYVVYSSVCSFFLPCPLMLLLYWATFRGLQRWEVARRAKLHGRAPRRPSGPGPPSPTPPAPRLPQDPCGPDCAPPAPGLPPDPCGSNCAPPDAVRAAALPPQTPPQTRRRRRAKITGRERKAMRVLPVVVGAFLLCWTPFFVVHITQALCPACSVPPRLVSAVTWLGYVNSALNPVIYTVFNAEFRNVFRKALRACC
Experimental: Inhibition of the Binding of ^3H-YM-09151-2 to Human Dopamine D4 Receptors
By this method the inhibition by drugs of the binding of [^3H]YM-09151-2 (0.06 nM) to membranes of human cloned dopamine D4.2 receptors expressed in CHO-cells is determined in vitro. Method modified from NEN Life Science Products, Inc., technical data certificate PC2533-10/96. The results are given in the following Table 1 as IC50-values or as percent inhibition of the binding of ^3H-YM-09151 -2 at the concentration of the test compound indicated.

[2] = target: T2, human cloned dopamine D3 receptors (Homo sapiens, UniProt P35462); test: Inhibition of the binding of [3H]-Spiperone to human D3 receptors; settings: [3H]Spiperone 0.3 nM; for IC50: membranes of CHO-cells, read-out: D3-bind. IC50; for inhibition at 0.05 µM: test compound at 50 nM, read-out: D3-bind. % inhibition of binding at 50 nM
T2 construct: expressed in transfected cells; host or cells: CHO cells
Experimental: Inhibition of the Binding of [^3H]-Spiperone to Human D3 Receptors
By this method the inhibition by drugs of the binding [^3H]Spiperone (0.3 nM) to membranes of human cloned dopamine D3 receptors expressed in CHO-cells is determined in vitro. Method modified from R. G. MacKenzie et al. Eur. J. Pharm.-Mol. Pharm. Sec. 1994, 266, 79-85. The results are given in the following Table 1 as IC50-values or as percent inhibition of the binding of ^3H-Spiperone at the concentration of the test compound indicated.

T2 sequence (P35462 whole entry): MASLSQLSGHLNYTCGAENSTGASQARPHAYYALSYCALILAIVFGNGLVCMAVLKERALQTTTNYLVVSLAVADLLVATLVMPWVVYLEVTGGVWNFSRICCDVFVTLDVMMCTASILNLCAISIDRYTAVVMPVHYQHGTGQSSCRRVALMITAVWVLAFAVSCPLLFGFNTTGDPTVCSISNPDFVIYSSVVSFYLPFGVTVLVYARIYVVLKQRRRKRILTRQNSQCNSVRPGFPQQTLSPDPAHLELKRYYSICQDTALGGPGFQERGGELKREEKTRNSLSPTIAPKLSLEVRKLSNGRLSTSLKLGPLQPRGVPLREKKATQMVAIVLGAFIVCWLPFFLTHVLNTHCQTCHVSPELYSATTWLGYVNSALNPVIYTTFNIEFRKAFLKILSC

| SMILES | IC50 [1] [µM] | IC50 [2] [µM] | inhibition at 0.05 µM [1] [%] | inhibition at 0.05 µM [2] [%] |
| --- | --- | --- | --- | --- |
| Cc1c(Oc2cccc(N(C)C)c2)cccc1N1CCN(CCCc2c[nH]c3ccccc23)CC1 [Compound 1a] | 0.048 | 0.026 |  |  |
| Cc1c(N2CCOCC2)cccc1N1CCN(CCCc2c[nH]c3ccccc23)CC1 [Compound 1b, 1-[3-(1H-Indol-3-yl)propyl]-4-[2-methyl-3-(morpholin-4-yl)-phenyl]piperazine] | 0.0059 | 0.22 |  |  |
| CCN(CC)c1cccc(Oc2cccc(N3CCN(CCCc4c[nH]c5ccc(F)cc45)CC3)c2C)c1 [Compound 2a] | 0.0054 | 0.01 |  |  |
| Cc1c(N2CCOCC2)cccc1N1CCCN(CCCc2c[nH]c3ccc(F)cc23)CC1 [Compound 2aa, 1-[3-(Morpholin-4-yl)-2-methylphenyl]-4-[3-(5-fluoro-1H-indol-3-yl)propyl]-1,4-diazepane] |  |  | 53 | 40 |
| CCN(CC)c1cccc(Oc2cccc(N3CCN(CCCCc4c[nH]c5ccc(Cl)cc45)CC3)c2C)c1 [Compound 2ab, 1-{3-[3-(Diethylamino)phenoxy]-2-methylphenyl}-4-[4-(5-chloro-1H-indol-3-yl)butyl]piperazine] |  |  | 53 | 83 |
| COc1cc(Oc2cccc(N3CCN(CCCc4c[nH]c5ccc(F)cc45)CC3)c2C)cc(OC)c1OC [Compound 2b, 1-[2-Methyl-3-(3,4,5-trimethoxyphenoxy)phenyl]-4-[3-(5-fluoro-1H-indol-3-yl)propyl]piperazine] |  | 0.0068 | 98 |  |
| CCN(CC)c1cccc(Oc2cccc(N3CCN(CCCc4c[nH]c5ccc(Cl)cc45)CC3)c2C)c1 [Compound 2c, 1-{3-[3-(Diethylamino)phenox]-2-methylphenyl}-4-[3-(5-chloro-1H-indol-3-yl)propyl]piperazine] | 0.0055 | 0.013 |  |  |
| CCN(CC)c1cccc(Oc2cccc(N3CCN(CCCc4c[nH]c5c(F)cc(F)cc45)CC3)c2C)c1 [Compound 2d, 1-{3-[3-(Diethylamino)phenoxy]-2-methylphenyl}-4-[3-(5,7-difluoro-1H-indol-3-yl)propyl]piperazine] | 0.012 |  |  | 70 |
| COc1cc(Oc2cccc(N3CCN(CCCc4c[nH]c5ccc(Cl)cc45)CC3)c2C)cc(OC)c1OC [Compound 2e, 1-[2-Methyl-3-(3,4,5-trimethoxyphenoxy)phenyl}-4-[3-(5-chloro-1H-indol-3-yl)propyl]piperazine] | 0.01 |  |  | 71 |
| CCN(CC)c1cccc(Oc2cccc(N3CCN(CCCc4c[nH]c5ccccc45)CC3)c2C)c1 [Compound 2f, 1-{3-[3-(Diethylamino)phenoxy]-2-methylphenyl}-4-[3-(1H-indol-3-yl)propyl]piperazine] | 0.035 |  |  | 70 |
| Cc1c(N2CCCN(CCCc3c[nH]c4ccc(F)cc34)CC2)cccc1N1CC(C)OC(C)C1 (centres unmarked) [Compound 2g, 1-[3-(2,6-Dimethylmorpholin-4-yl)-2-methylphenyl]-4-[3-(5-fluoro-1H-indol-3-yl)propyl]-1,4-diazepan] | 0.026 |  |  | 65 |

Results, then the compound that gave them:

| IC50 [1] [µM] | IC50 [2] [µM] | inhibition at 0.05 µM [1] [%] | inhibition at 0.05 µM [2] [%] | SMILES |
| --- | --- | --- | --- | --- |
| 0.037 |  |  | 77 | Cc1c(Oc2cccc(N(C)C)c2)cccc1N1CCN(CCCc2c[nH]c3ccc(F)cc23)CC1 [Compound 2h, 1-{3-[3-(Dimethylamino)phenoxy]-2-methylphenyl}-4-[3-(5-fluoro-1H-indol-3-yl)propyl]piperazine] |
| 0.035 |  |  | 54 | Cc1c(Oc2ccc3c(c2)OCO3)cccc1N1CCN(CCCc2c[nH]c3ccccc23)CC1 [Compound 2i, 1-[3-(1,3-Benzodioxolan-5-yloxy)-2-methylphenyl]-4-[3-(1H-indol-3-yl)propyl]piperazine] |
| 0.036 |  |  | 57 | Cc1c(N2CCN(CCCc3c[nH]c4ccc(F)cc34)CC2)cccc1N1CC(C)OC(C)C1 (centres unmarked) [Compound 2j, 1-[3-(2,6-Dimethylmorpholin-4-yl)-2-methylphenyl]-4-[3-(5-fluoro-1H-indol-3-yl)propyl]piperazine] |
| 0.04 |  |  | 96 | CCN(CC)c1cccc(Oc2cccc(N3CCN(CCCCc4c[nH]c5ccc(F)cc45)CC3)c2C)c1 [Compound 2k, 1-{3-[3-(Diethylamino)phenoxy]-2-methylphenyl}-4-[4-(5-fluoro-1H-indol-3-yl)butyl]piperazine] |
| 0.03 |  |  | 40 | Cc1c(N2CCOCC2)cccc1N1CCN(CCCc2c[nH]c3ccc(Cl)cc23)CC1 [Compound 2l, 1-[3-(Morpholin-4-yl)-2-methylphenyl]-4-[3-(5-chloro-1H-indol-3-yl)propyl]piperazine] |
| 0.057 |  |  | 74 | Cc1c(Oc2cccc(N(C)C)c2)cccc1N1CCN(CCCc2c[nH]c3ccc(Cl)cc23)CC1 [Compound 2m] |
| 0.052 |  |  | 19 | Cc1c(N2CCN(CCCc3c[nH]c4ccccc34)CC2)cccc1N1CCC[C@H]1CO [Compound 2o, (S)-1-[3-(2-Hydroxymethylpyrrolidin-1-yl)-2-methylphenyl]-4-[3-(1H-indol-3-yl)propyl]piperazine] |
|  |  | 67 | 54 | Cc1c(N2CCN(CCCc3c[nH]c4ccc(F)cc34)CC2)cccc1N1CCC[C@H]1CO [Compound 2p, (S)-1-[3-(2-Hydroxymethylpyrrolidin-1-yl)-2-methylphenyl]-4-[3-(5-fluoro-1H-indol-3-yl)propyl]piperazine] |
| 0.043 |  |  | 61 | Cc1c(Oc2ccc3c(c2)OCO3)cccc1N1CCN(CCCc2c[nH]c3ccc(F)cc23)CC1 [Compound 2q, 1-[3-(1,3-Benzodioxolan-5-yloxy)-2-methylphenyl]-4-[3-(5-fluoro-1H-indol-3-yl)propyl]piperazine] |
| 0.062 |  |  | 90 | Cc1c(Oc2cccc(N(C)C)c2)cccc1N1CCN(CCCCc2c[nH]c3c(F)cc(F)cc23)CC1 [Compound 2r, 1-{3-[3-(Dimethylamino)phenoxy]-2-methylphenyl}-4-[4-(5,7-difluoro-1H-indol-3-yl)butyl]piperazine] |
| 0.041 |  |  | 36 | Cc1c(N2CCN(CCCc3c[nH]c4c(F)cc(F)cc34)CC2)cccc1N1CCC[C@H]1CO [Compound 2s, (S)-1-[3-(2-Hydroxymethylpyrrolidin-1-yl)-2-methylphenyl]-4-[3-(5,7-difluoro-1H-indol-3-yl)propyl]piperazine] |
| 0.047 |  |  | 54 | Cc1c(Oc2ccc3c(c2)OCO3)cccc1N1CCN(CCCc2c[nH]c3c(F)cc(F)cc23)CC1 [Compound 2t, 1-[3-(1,3-Benzodioxolan-5-yloxy)-2-methylphenyl]-4-[3-(5,7-difluoro-1H-indol-3-yl)propyl]piperazine] |
| 0.034 |  |  | 43 | Cc1c(N2CCN(CCCc3c[nH]c4c(F)cc(F)cc34)CC2)cccc1N1CC(C)OC(C)C1 (centres unmarked) [Compound 2w, 1-[3-(2,6-Dimethylmorpholin-4-yl)-2-methylphenyl]-4-[3-(5,7-difluoro-1H-indol-3-yl)propyl]piperazine] |
| 0.076 |  |  | 66 | CCN(CC)c1cccc(Oc2cccc(N3CCCN(CCCc4c[nH]c5c(F)cc(F)cc45)CC3)c2C)c1 [Compound 2x, 1-{3-[3-(Diethylamino)phenoxy]-2-methylphenyl}-4-[3-(5,7-difluoro-1H-indol-3-yl)propyl]-1,4-diazepane] |
